ChEMBL document CHEMBL1141641, “SAR studies of capsazepinoid bronchodilators. Part 1: The importance of the catechol moiety and aspects of the B-ring structure” (Bioorg Med Chem, 2008)

organism: Homo sapiens; experiment: Bronchodilation activity against leukotriene D4-induced constriction in human lung small airways assessed as remaining contraction at 10 uM after 1.5 hrs relative to control; format: functional

**Q.** `Oc1cccc2c1CCN(C(=S)NCCc1ccc(Cl)cc1)C2` was tested. Which Remaining contraction did it give?
**A.** 48%

**Q.** With `Oc1cccc2c1CN(C(=S)NCCc1ccc(Cl)cc1)CC2` as the compound, how does the Remaining contraction read?
**A.** 73%

**Q.** `Oc1cc2c(cc1O)CCN(C(=S)NCCc1ccc(Cl)cc1)CC2` was tested. Which Remaining contraction did it give?
**A.** 54%

**Q.** For `Oc1ccc2c(c1)CCCN(C(=S)NCCc1ccc(Cl)cc1)C2`, which Remaining contraction is on record?
**A.** 53%

**Q.** `Oc1cc2c(cc1O)CN(C(=S)NCCc1ccc(Cl)cc1)CC2` was tested. Which Remaining contraction did it give?
**A.** 36%

**Q.** With `Oc1ccc2c(c1)CN(C(=S)NCCc1ccc(Cl)cc1)C2` as the compound, how does the Remaining contraction read?
**A.** 41%

**Q.** For `CC1c2cc(O)c(O)cc2CCN1C(=S)NCCc1ccc(Cl)cc1` (centres undefined), which Remaining contraction is on record?
**A.** 58%

**Q.** With `Oc1cccc2c1CN(C(=S)NCCc1ccc(Cl)cc1)C2` as the compound, how does the Remaining contraction read?
**A.** 82%

**Q.** Which Remaining contraction does the source give for `Oc1cc2c(cc1O)C(Cc1ccccc1)N(C(=S)NCCc1ccc(Cl)cc1)CC2` (centres undefined) here?
**A.** 79%

**Q.** For `Oc1ccc2c(c1)CN(C(=S)NCCc1ccc(Cl)cc1)CC2`, which Remaining contraction is on record?
**A.** 75%

**Q.** For `Oc1ccc2c(c1O)CCN(C(=S)NCCc1ccc(Cl)cc1)C2`, which Remaining contraction is on record?
**A.** 63%

**Q.** With `Oc1cc2c(cc1O)CN(C(=S)NCCc1ccc(Cl)cc1)C2` as the compound, how does the Remaining contraction read?
**A.** 56%

**Q.** Which Remaining contraction does the source give for `Oc1cc2c(cc1O)CN(C(=S)NCCc1ccc(Cl)cc1)CCC2` here?
**A.** 55%

**Q.** For `Oc1ccc2c(c1)CCN(C(=S)NCCc1ccc(Cl)cc1)C2`, which Remaining contraction is on record?
**A.** 52%

**Q.** With `Oc1ccc(CNC(=S)NCCc2ccc(Cl)cc2)cc1O` as the compound, how does the Remaining contraction read?
**A.** 69%

**Q.** With `Oc1ccc2c(c1)CN(C(=S)NCCc1ccc(Cl)cc1)CCC2` as the compound, how does the Remaining contraction read?
**A.** 40%

**Q.** How did the Remaining contraction turn out when `CN(Cc1ccc(O)c(O)c1)C(=S)NCCc1ccc(Cl)cc1` was run?
**A.** 69%

**Q.** `Oc1ccc(CCNC(=S)NCCc2ccc(Cl)cc2)cc1O` was tested. Which Remaining contraction did it give?
**A.** 72%

**Q.** Which Remaining contraction does the source give for `CC1Cc2cc(O)c(O)cc2CN1C(=S)NCCc1ccc(Cl)cc1` (centres undefined) here?
**A.** 70%
